Literature values as cited in patent publication US20090004290A1, “RED YEAST RICE COMPOUND FOR CANCER CHEMOPREVENTION” (priority 2007, published 2009).

What was measured:
lung cancer [1] = system: lung cancer
[2] = system: total, breast, colorectal, or other site-specific cancers; details: 100 mg alternate day, average 10 years of treatment, women
lung cancer [3] = details: interim analysis of over 3200 participants
lung cancer [4] = details: secondary endpoint; follow up of over 1300 participants; selenium supplementation

In the case of Cc1c(C)c2c(c(C)c1O)CC[C@@](C)(CCC[C@H](C)CCC[C@H](C)CCCC(C)C)O2 [Alpha-tocopherol], the “mortality due to hemorrhagic stroke” value (lung cancer [1]; participants that received Alpha-tocopherol) is listed as “higher mortality” and the “decrease incidence of lung cancer” value (lung cancer [1]; participants with highest blood levels vs quartile with lowest levels) is listed as 19%.

In the case of CC(=O)Oc1ccccc1C(=O)O [aspirin, acetylsalicylic acid], the “risk of total, breast, colorectal, or other site-specific cancers” value [2] is given as “does not lower risk”.

In the case of [Cu] [copper, Copper], the “trend of lung cancer with supplementation / dietary intake” value (lung cancer [3]) is given as “protective trend”.

For [Se] [selenium, Selenium], the “hazard ratio (lung cancer)” value (lung cancer [4]) is given as 0.56 and the “trend of lung cancer with supplementation / dietary intake” value (lung cancer [3]) is given as “significant inverse trend”.

For [Zn] [zinc, Zinc], the “trend of lung cancer with supplementation / dietary intake” value (lung cancer [3]) is listed as “significant chemoprotective trend”.
